Publication PMC10777855, “Pharmacological validation of dihydrofolate reductase as a drug target in Mycobacterium abscessus” (Antimicrobial Agents and Chemotherapy, 2023)
pIC50: −log10 of the molar value.

Each compound was assayed against T1, M. abscessus DHFR (recombinant) (Mycobacteroides abscessus, UniProt B1MD46) (assay: NADPH absorbance decrease at […] nm (DHFR kit CS0340)). Details: read-out: IC50 (μM) ^ b.
T1 construct: gene MAB_3090c; E. coli codon-optimised gene in pET28a (NcoI/XhoI), N-terminal His6-tag, expressed in E. coli BL21(DE3), Ni-NTA purified; tag removal not mentioned
T1 sequence (B1MD46 1-163): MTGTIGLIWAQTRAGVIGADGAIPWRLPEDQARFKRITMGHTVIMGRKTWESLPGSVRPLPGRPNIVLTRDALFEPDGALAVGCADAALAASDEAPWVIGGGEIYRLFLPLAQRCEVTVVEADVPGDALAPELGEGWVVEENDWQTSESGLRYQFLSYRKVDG
Assay type: biochemical

Compared with COc1cc(Cc2cnc(N)nc2N)cc(OC)c1Br [Brodimoprim], COc1cc(Cc2cnc(N)nc2N)cc(OC)c1OC [Trimethoprim] is 15-fold higher in IC50: 1.7 µM for the first, 25 µM for the second.

First: COc1cc(Cc2cnc(N)nc2N)c2c(c1OC)OC(C1CC1)C=C2 (stereo not shown) [Iclaprim]
Second: COCCOc1c(OC)cc(Cc2cnc(N)nc2N)cc1OC [Tetroxoprim]
The IC50 of the first is 33-fold lower: 0.6 µM for the first, 20 µM for the second. The first is the more potent here.

First: CN(Cc1cnc2nc(N)nc(N)c2n1)c1ccc(C(=O)N[C@@H](CCC(=O)O)C(=O)O)cc1 [Methotrexate]
Second: C#CCC(Cc1cnc2nc(N)nc(N)c2n1)c1ccc(C(=O)N[C@@H](CCC(=O)O)C(=O)O)cc1 (stereo partly shown) [Pralatrexate]
The IC50 of the first is 13-fold lower: 0.016 µM for the first, 0.21 µM for the second. The first is the more potent here.

First: N#Cc1ccc(Cn2ccc3c4c(N)nc(N)nc4ccc32)cc1 [PQD-1]
Second: COc1cc(NCc2ccc3nc(N)nc(N)c3c2C)cc(OC)c1OC [Trimetrexate]
The IC50 of the first is 2-fold lower: 0.0025 µM for the first, 0.005 µM for the second. The first is the more potent here.

First: CCc1nc(N)nc(N)c1-c1ccc(Cl)cc1 [Pyrimethamine]
Second: CC1(C)N=C(N)N=C(N)N1OCCCOc1cc(Cl)c(Cl)cc1Cl [WR99210]
The IC50 of the first is 290-fold higher: 4.7 µM for the first, 0.016 µM for the second.

Same assay, conditions: read-out: IC50 ^ b

First: N#Cc1cccc(Cn2ccc3c4c(N)nc(N)nc4ccc32)c1 [PQD-2]
Second: Nc1nc(N)c2c(ccc3c2ccn3Cc2cccc(Cl)c2)n1 [PQD-9]
The pIC50 of the first is 0.95 log units higher: 8.47 for the first, 7.52 for the second. The first is the more potent here.

COC(=O)c1ccc(Cn2ccc3c4c(N)nc(N)nc4ccc32)cc1 [PQD-3] and Nc1nc(N)c2c(ccc3c2ccn3Cc2ccc(F)cc2)n1 [PQD-8] are within 0.2 log units of each other in pIC50: 7.82 for the first, 7.70 for the second.

Cc1cccc(Cn2ccc3c4c(N)nc(N)nc4ccc32)n1 [PQD-4] and Cc1ccccc1Cn1ccc2c3c(N)nc(N)nc3ccc21 [PQD-6] are the same in pIC50: 7.82 for the first, 7.82 for the second.

N#Cc1ccccc1Cn1ccc2c3c(N)nc(N)nc3ccc21 [PQD-5] and Nc1nc(N)c2c(ccc3c2ccn3Cc2ccc3ccccc3c2)n1 [PQD-7] are within 0.2 log units of each other in pIC50: 7.80 for the first, 7.82 for the second.

Compound CC(C)Nc1nc(N)c2c(ccc3c2ccn3Cc2ccc(C(C)C)cc2)n1 [PQD-10] has a pIC50 of 5.39.
